In patent US20220265656A1, “COMBINATION THERAPIES WITH IRE1 SMALL MOLECULE INHIBITORS” (Cornell University, priority 2019, published 2022):
Counter-ions that a name gives are not always drawn.

Tests used:
in vivo = details: mouse
[1] = Bioavailability assay (pharmacokinetic study); details: mouse; IV 1 mg/kg, PO 10 or 30 mg/kg
[2] = Metabolic assays of N,N-dimethyl compounds; format: in vitro ADME; details: data not shown
IRE1a/XBP1 pathway = assay: Inhibition of endogenous XBP1 splicing in 293T cells with tunicamycin; format: cell-based, human
Procedure: Gene expression was evaluated by quantitative PCR for XBP1s and total XBP1 transcripts using the 2^(−ΔCT) method for calculating normalized gene expression. Gene expression levels were normalized to ACTB transcripts. XBP1 splicing was calculated as actin-normalized XBP1s expression divided by actin-normalized total XBP1 expression.

[3] = test system: IRE1a-mediated XBP1 splicing; assay: Target engagement in pancreas and salivary gland (XBP1 splicing RT-qPCR); format: in vivo, mouse; details: mice, 30 mg/kg oral gavage, 6 hours, compared to control and Compound B
Procedure: Mice (n=3 per group) were orally gavaged with 30 mg/kg vehicle control or IRE1 inhibitors dissolved in H2O. After 6 hours, mice were euthanized and pancreas and salivary gland tissues were isolated, snap frozen on dry ice, and used for subsequent RT-qPCR analysis of beta-actin, XBP1s and total XBP1. Gene expression was evaluated by quantitative PCR for XBP1s and total XBP1 transcripts using the 2^(−ΔCT) method for calculating normalized gene expression. Gene expression levels were normalized to Actb transcripts. XBP1 splicing is calculated as XBP1s expression divided by total XBP1 expression.

[4] = test system: IRE1a-dependent XBP1 splicing; assay: Inhibition of IRE1a-dependent XBP1 splicing in ovarian cancer cells in vivo; design: species or system mouse; details: mice with metastatic ovarian cancer, single oral dose 45 mg/kg, 24 hours
Procedure: Mice (n=3) with established metastatic ovarian cancer were orally gavaged with 45 mg/kg vehicle control or inhibitor dissolved in H2O. The inhibitor was Compound C. Compound C is 2-chloro-N-(5-(2-(((1r,4r)-4-(dimethylamino)cyclohexyl)amino)-8-ethylquinazolin-6-yl)-6-methylpyridin-2-yl)benzenesulfonamide, Compound 91, described herein. After 24 hours, mice were euthanized, ascites-resident cells were extracted and tumor cells, dendritic cells (DCs), and CD4+ T cells were isolated by FACS. The samples were used for subsequent RT-qPCR analysis of beta-actin, XBP1s and total XBP1. Gene expression was evaluated by quantitative PCR for XBP1s and total XBP1 transcripts using the 2^(−ΔCT) method for calculating normalized gene expression. Gene expression levels were normalized to Actb transcripts. XBP1 splicing is calculated as XBP1s expression divided by total XBP1 expression. A single oral dose of Compound C suppressed IRE1a-dependent XBP1 splicing in tumor cells and relevant immune cells in vivo over 24 hours, FIG. 7.
Mice (n=3) with established metastatic ovarian cancer were orally gavaged with 45 mg/kg vehicle control or inhibitor dissolved in H2O. […] Gene expression was evaluated by quantitative PCR for XBP1s and total XBP1 transcripts using the 2^(−ΔCT) method for calculating normalized gene expression. […] XBP1 splicing is calculated as XBP1s expression divided by total XBP1 expression. […]

IRE1a [5] = molecular target: T1, IRE1a (Homo sapiens, UniProt O75460); assay: IRE1a Endoribonuclease Nanoluciferase Assay in 293T cells; format: cell-based; design: endogenous in cells; host or cells: 293T cells; details: XBP1 luciferase reporter in 293T cells, ER stressor
T1 sequence (O75460 19-977): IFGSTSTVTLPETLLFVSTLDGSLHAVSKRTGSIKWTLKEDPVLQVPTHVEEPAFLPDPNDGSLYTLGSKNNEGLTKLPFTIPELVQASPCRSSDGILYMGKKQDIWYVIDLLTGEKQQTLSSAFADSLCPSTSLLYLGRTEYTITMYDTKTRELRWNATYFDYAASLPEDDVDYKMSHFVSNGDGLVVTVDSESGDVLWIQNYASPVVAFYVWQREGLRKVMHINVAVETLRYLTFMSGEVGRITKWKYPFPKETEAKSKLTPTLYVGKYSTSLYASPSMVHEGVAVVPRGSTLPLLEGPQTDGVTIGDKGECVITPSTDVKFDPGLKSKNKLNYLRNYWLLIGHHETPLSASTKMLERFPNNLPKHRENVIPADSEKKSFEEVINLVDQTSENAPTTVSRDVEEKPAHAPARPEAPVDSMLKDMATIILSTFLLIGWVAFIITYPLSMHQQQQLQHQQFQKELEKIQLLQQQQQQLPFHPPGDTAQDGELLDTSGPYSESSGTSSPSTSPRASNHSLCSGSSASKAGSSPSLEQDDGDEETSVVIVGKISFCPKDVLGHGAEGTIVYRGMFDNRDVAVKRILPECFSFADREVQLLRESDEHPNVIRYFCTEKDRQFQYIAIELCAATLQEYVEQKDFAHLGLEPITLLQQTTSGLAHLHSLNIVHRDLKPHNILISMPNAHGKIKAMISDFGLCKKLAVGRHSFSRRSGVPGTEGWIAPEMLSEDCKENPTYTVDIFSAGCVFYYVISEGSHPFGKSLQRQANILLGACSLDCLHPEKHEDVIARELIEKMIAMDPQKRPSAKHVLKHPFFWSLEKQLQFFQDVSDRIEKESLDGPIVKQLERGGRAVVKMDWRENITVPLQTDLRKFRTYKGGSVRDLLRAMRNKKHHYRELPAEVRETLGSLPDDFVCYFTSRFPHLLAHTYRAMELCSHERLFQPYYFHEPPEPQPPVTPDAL
Procedure: Compounds disclosed herein were assessed for disruption of IRE1 signaling using a IRE1a Endoribonuclease Nanoluciferase Assay. Briefly, 2.5×10^6 293T cells were seeded in a 10 cm^2 tissue culture plate. About 24 hours later, the cells were transfected with Effectene. In a 15 mL tube, the following was added: 2 ug XBP1 luciferase reporter plasmid (PGK-Luc2-P2A-XBP1u-Nanoluciferase-PEST); 300 ul EC buffer; and 16 ul Enhancer, followed by incubation at room temp for 5 minutes. Next, 60 ul Effectene (Qiagen 301427) was added, followed by incubation at room temperature for 10 minutes, 2.6 mL cDMEM media was added. Old media was aspirated from the cells, followed by addition of 7 mL fresh media. Full transfection mixture was added dropwise to cells. Cells were incubated for 6 hours, followed by trypsinization, centrifugation and resuspension in 11 mL fresh cDMEM media, 100 uL of cells were plated per a well in a 96 well plate. A day later, ER stressors of choice +/−inhibitors were added. To harvest, media was aspirated from cells completely, then 50 uL 1× passive lysis buffer (Promega: E1941) was added per well and put on shaker (300 rpm) for 30 minutes at room temperature. Cells were centrifuged, and 15 uL sample per well was added to a new, opaque white 384 well plate (Corning 3570), 15 uL OneGlo (nanoluciferase kit, Promega N1630) was added. Plates were spun down, placed on shaker (300 rpm) for 10 minutes. Plates were read on luminometer, 1000 ms integration time per well, 15 uL Stop and Glo (nanoluciferase kit) was added. Plates were spun down, placed on shaker (300 rpm) for 10 minutes. Plates were read on luminometer, 1000 ms second integration time per well. Recordings are provided below in Table 4.

IRE1a [6] = molecular target: T1, IRE1a; assay: In vitro FRET assay (IRE1a cleavage of XBP1 RNA probe); format: biochemical; design: purchased SignalChem; details: 2 nM IRE1a
Procedure: In vitro FRET assay was performed to evaluate the ability of select compounds to inhibit IRE1, the results of which are summarized in Table 3. To perform the in vitro FRET assay, 1× complete assay buffer (CAB; […], 50 mM sodium citrate pH 7.15, 1 mM magnesium acetate, 0.02% tween 20) was used to dilute SignalChem IRE1a protein to a final concentration of 2 nM. Selected compounds were serially diluted with DMSO in a non-binding black 384-well plate for a total of 15 ul in each well, 2 ul of the serially diluted compound or DMSO control were then added to new wells containing 98 ul of 1×CAB, for a total volume of 100 ul, 10 ul of which were then transferred to wells of a new plate, 5 ul of the diluted IRE1a was then added to each well, 5 ul of a […] XBP1 RNA probe was then added to each well. Fluorescence was then read over 30 minutes in kinetic mode (485/515 nm).
Two RNA probes were used, XBP1 wildtype (SEQ ID NO: 2) which is able to be spliced by active IRE1a or XBP1 mutant (SEQ ID NO: 3) which is unable to be spliced. Each probe contained a 5′ 6-FAM modification and a 3′ IOWA Black FQ modification. […]

| Structure (SMILES) | EC50 (IRE1a [5]) [nM] | IC50 (IRE1a [6]) [nM] | other results |
| --- | --- | --- | --- |
| CCc1cc(-c2ccc(NS(=O)(=O)c3ccccc3Cl)nc2OC)cc2cnc(N[C@H]3CC[C@H](N(C)C)CC3)nc12 [Compound 99] |  |  | bioavailability (in vivo): 70% |
| CCc1cc(-c2ccc(NS(=O)(=O)c3ccccc3Cl)nc2C)cc2cnc(N[C@H]3CC[C@H](N)CC3)nc12 [Compound A, N-(5-(2-(((1r,4r)-4-aminocyclohexyl)amino)-8-ethylquinazolin-6-yl)-6-methylpyridin-2-yl)-2-chlorobenzenesulfonamide] |  |  | oral bioavailability [1]: 4% |
| CCc1cc(-c2ccc(NS(=O)(=O)c3ccccc3Cl)nc2C)cc2cnc(N[C@H]3CC[C@H](N(C)C)CC3)nc12 [Compound 91, 2-chloro-N-(5-(2-(((1r,4r)-4-(dimethylamino)cyclohexyl)amino)-8-ethylquinazolin-6-yl)-6-methylpyridin-2-yl)benzenesulfonamide] |  |  | metabolism of N,N-dimethyl compounds [2]: removal of the methyl groups; shift in potency between Compound A and Compound C (XBP1 splicing inhibition) (IRE1a/XBP1 pathway): approximately 3.6 × |
| CCc1cc(-c2ccc(NS(=O)(=O)c3ccccc3Cl)nc2OC)cc2cnc(N[C@H]3CC[C@H](N(C)C)CC3)nc12 [Compound 99, 2-chloro-N-(5-(2-(((1r,4r)-4-(dimethylamino)cyclohexyl)amino)-8-ethylquinazolin-6-yl)-6-methoxypyridin-2-yl)benzenesulfonamide] |  |  | IRE1a-mediated XBP1 splicing in pancreas and salivary gland [3]: potently suppressed; IRE1a-dependent XBP1 splicing in FACS-isolated ascites cells [4]: suppressed; metabolism of N,N-dimethyl compounds [2]: removal of the methyl groups |
| COc1nc(NS(=O)(=O)c2ccccc2Cl)ccc1-c1cc(C(F)(F)F)c2nc(N[C@H]3CC[C@H](N(C)C)CC3)ncc2c1 [135; Formic Acid Salt] | ≤ 5 | ≤ 5 |  |
| CCc1nc(NS(=O)(=O)c2ccccc2Cl)ccc1-c1cc(CC)c2nc(N[C@H]3CC[C@H](N(C)C)CC3)ncc2c1 [117; Formic Acid Salt] | ≤ 5 | ≤ 5 |  |
| Cc1nc(NS(=O)(=O)c2ccccc2Cl)c(F)cc1-c1ccc2nc(N[C@H]3CC[C@H](N(C)C)CC3)ncc2c1 [153; Formic Acid Salt] | 5 to 50 | ≤ 5 |  |
| CCc1cc(-c2ccc(NS(=O)(=O)c3ccccc3Cl)nc2C)cc2cnc(N[C@H]3CC[C@H](N(C)C)C[C@@H]3F)nc12 [151; Formic Acid Salt] | ≤ 5 | ≤ 5 |  |
| CCc1cc(-c2cc(F)c(NS(=O)(=O)c3ccccc3Cl)nc2OC)cc2cnc(N[C@H]3CC[C@H](NC)CC3)nc12 [127; Formic Acid Salt] | ≤ 5 | ≤ 5 |  |
| CN[C@H]1CC[C@H](Nc2ncc3cc(-c4cc(F)c(NS(=O)(=O)c5ccccc5Cl)nc4OC)ccc3n2)CC1 [150; Formic Acid Salt] | 5 to 50 | ≤ 5 |  |
| CCc1cc(-c2ccc(NS(=O)(=O)c3ccccc3Cl)nn2)cc2cnc(N[C@H]3CC[C@H](N(C)C)CC3)nc12 [64; Formic Acid Salt] | ≤ 5 | ≤ 5 |  |
